From publication PMC3963422 (Journal of Visualized Experiments : JoVE, 2013)

What was measured:
[1] = D-Lac vs D-Ala peptide terminus; cited from earlier work
[2] = cantilever bending in serum, D-Ala coated cantilevers; format: binding; conditions: 7 μM Van in serum (90% fetal calf serum plus 10% sodium phosphate buffer pH 7.4), 25 °C
[3] = cantilever array surface stress detection, D-Lac coated cantilevers, buffer; format: binding
[4] = test system: vancomycin-resistant Enterococcus (VRE); conditions: vancomycin-resistant Enterococcus (D-Lac); cited from earlier work
[5] = cantilever bending in serum, D-Lac coated cantilevers; format: binding; conditions: 7 μM Van in serum (90% fetal calf serum plus 10% sodium phosphate buffer pH 7.4), 25 °C

## CN[C@H](CC(C)C)C(=O)N[C@H]1C(=O)N[C@@H](CC(N)=O)C(=O)N[C@H]2C(=O)N[C@H]3C(=O)N[C@H](C(=O)N[C@H](C(=O)O)c4cc(O)cc(O)c4-c4cc3ccc4O)[C@H](O)c3ccc(c(Cl)c3)Oc3cc2cc(c3O[C@@H]2O[C@H](CO)[C@@H](O)[C@H](O)[C@H]2O[C@H]2C[C@](C)(N)[C@H](O)[C@H](C)O2)Oc2ccc(cc2Cl)[C@H]1O [Van, vancomycin]
[1]
  reduction in Van-D-Lac binding affinity: three orders of magnitude
[2]
  differential bending signal: 105±4 nm
[3]
  bending signal at high vancomycin concentration: measureable bending signals
[4]
  therapeutic effectiveness against Enterococcal infections: therapeutically ineffective
[5]
  bending signal: no bending was observed
